The test system of experiment [1] is SW480 cells. In words: Hoechst side population staining of SW480 cells. The class given is cell-based. The conditions noted are these: treated before Hoechst staining (50 μM), FIG. 4A. Here is the method: Hoechst Side Population: SW480 cells were removed from the culture dish with trypsin and ethylenediaminetetraacetic acid (“EDTA”), pelleted by centrifugation, washed with phosphate-buffered saline (PBS), and resuspended at 37° C. in Dulbecco's modified Eagle's medium (DMEM) containing 2% FBS and 1 mM 4-(2-hydroxyethyl)-1-piperazineethanesulfonic acid (HEPES). The cells were then labeled with Hoechst 33342 (Invitrogen) at a concentration of 5 μg/mL. The labeled cells were incubated for 120 minutes at 37° C., either alone or with 50 μM verapamil (Sigma-Aldrich, St. Louis). After staining, the cells were suspended in Hanks' balanced saline solution (HBSS; Invitrogen) containing 2% FBS and 1 mM HEPES, passed a through 40 μm mesh filter, and maintained at 4° C. until flow cytometry analysis. The Hoechst dye was excited at 350 nm, and its fluorescence was measured at two wavelengths using a 450 DF10 (450/20 nm band-pass filter) and a 675LP (675 nm long-pass edge filter) optical filter. The gating on forward and side scatter was not stringent, and only debris was excluded (Goodell et al., 1996 J Exp Med 183, 1797-806).
SW480 cells were stained with Hoechst. The side population (shown in FIG. 4A, upper left panel gated area) was sorted out to enrich the cancer stem cells. […]

In experiment [2] the test system is Hoechst side population of SW480 cells. In words: Colony formation assay, Hoechst side population vs non-side population. Format: cell-based. The conditions noted are these: colony formation assays, FIG. 4B. Here is the method: (§1) Cell Viability Determination: For colony formation assay, cells were plated in 6 well plates at 2000 cells per well. Twenty-four hours after plating, cells were treated with compound. Colonies were allowed to develop for 7-10 days, at which they were stained with modified Giemsa stain (Sigma). Stained colonies were then counted to determine IC50.
Hoechst Side Population: SW480 cells were removed from the culture dish with trypsin and ethylenediaminetetraacetic acid (“EDTA”), pelleted by centrifugation, washed with phosphate-buffered saline (PBS), and resuspended at 37° C. in Dulbecco's modified Eagle's medium (DMEM) containing 2% FBS and 1 mM 4-(2-hydroxyethyl)-1-piperazineethanesulfonic acid (HEPES). The cells were then labeled with Hoechst 33342 (Invitrogen) at a concentration of 5 μg/mL. The labeled cells were incubated for 120 minutes at 37° C., either alone or with 50 μM verapamil (Sigma-Aldrich, St. Louis). After staining, the cells were suspended in Hanks' balanced saline solution (HBSS; Invitrogen) containing 2% FBS and 1 mM HEPES, passed a through 40 μm mesh filter, and maintained at 4° C. until flow cytometry analysis. The Hoechst dye was excited at 350 nm, and its fluorescence was measured at two wavelengths using a 450 DF10 (450/20 nm band-pass filter) and a 675LP (675 nm long-pass edge filter) optical filter. […]

Experiment [3] relates to HT29. In words: Colony formation assay (CFA), HT29. Format: cell-based. The conditions noted are these: grown 7-10 days. Here is the method: as §1
(§2) Compounds 5 [as shown in Example 1], 3 [as shown in Example 1], 7-1[as shown in Example 1], 10-2 [as shown in Example 3], 10-1 [as shown in Example 2], and 13-1 [as shown in Example 4] were tested for their ability to inhibit cell growth and promote cell death using the colony formation assay (CFA). Cells were treated for either 6 or twenty-four hours with the indicated compounds, and then allowed to grow for an additional 7-10 days. Cells were then stained, and colonies counted to determine IC-50 values.
(§3) Similarly, Compound 10-2 [as shown in Example 3] was tested against a wide range of cancer cell lines.

Experiment [4] deals with MDA-MB-231. As to the kind of experiment: Colony formation assay (CFA), MDA-MB-231. The class given is cell-based. The conditions noted are these: grown 7-10 days. Here is the method:
as §1, §2

The subject of experiment [5] is FaDu xenograft tumors. As to the kind of experiment: Spherogenesis of cells from treated FaDu xenograft tumors. The class given is in vivo, mice. To be noted: daily po for four days; carboplatin 30 mg/kg, 10-2 100 mg/kg; spheres after 10-14 days. Here is the method: In addition, we also tested if compound 10-2 can target cancer stem cells in vivo. Six-week-old female athymic nu/nu mice were obtained from Charles River Labs (Wilmington, Mass.). Mice were injected subcutaneously on the flank with 6×10^6 FaDu cancer cells in 0.2 mL of serum-free DMEM. After xenografts reached ˜200 mm^3 in size, animals bearing FaDu xenograft tumors were administered daily with either vehicle, carboplatin (30 mg/kg), or compound 10-2 (100 mg/kg) via po for four days before sacrifice. Tumors were then collected for FaDu cells. Single cell suspensions were obtained following animal sacrifice, and sterile removal of tumors. Briefly, tumors were minced with sterile scalpels into 0.1 mm^3 pieces before being digested in 1 mg/mL collagenase/HBSS for 15-30 minutes with constant agitation. Following passage through a 40 μm mesh filter, RBCs, dead cells, and cell debris were removed by layering the cell suspension onto 1 mL of Histopaque and collecting interface layer after centrifugation at 1440×g for 30 minutes. Live cells were then counted and used to measure their ability to form spheres. […] Fresh media was added every three days, and sphere formation was determined after 10-14 days in culture. Spheres with >50 cells were scored. […]

For experiment [6], the system named is FaDu. In words: Colony formation assay (CFA), FaDu. The conditions noted are these: Homo sapiens, treated 6 or 24 hours, grown 7-10 days. Format: cell-based. As for the experimental part:
as §1, §2, §3

Setting [7] is: Homo sapiens, HT-29, treated 6 or 24 hours.
The mark [8] stands for this setting: Homo sapiens, MDA-MB-231, treated 6 or 24 hours.

Structures are written as SMILES.

This is an account of results in US8299106B2, “Compositions of kinase inhibitors and their use for treatment of cancer and other diseases related to kinases” (Boston Biomedical, Inc., priority 2007, dated 2012).

In general, IC50 refers to the midpoint of a concentration-inhibition curve. Low values mean greater potency, high ones weaker potency.

As for `COc1ccc(CCN(C)CCCC(C#N)(c2ccc(OC)c(OC)c2)C(C)C)cc1OC` (stereo not drawn) [Verapamil], the “effect on Hoechst side population” value in experiment [1] was “loss of the side population”. Take `COc1cccc2c1C(=O)c1c(O)c3c(c(O)c1C2=O)C[C@@](O)(C(=O)CO)C[C@@H]3O[C@H]1C[C@H](N)[C@H](O)[C@H](C)O1` [Doxorubicin]: in experiment [2], the “side population relative to non-side population” value is given as “more resistant”. As for `Cc1nc(-c2ccc3c(c2)/C(=C/c2[nH]c(C)c(C(=O)N4CCN(C)CC4)c2C)C(=O)N3)cs1` [Compound 7-1], the IC50 in experiment [3] (setting [7]) and in experiment [4] (setting [8]) was 6000 to 10000 nM in each case. For `N.N.O=C([O-])C1(C(=O)[O-])CCC1.[Pt+2]` [carboplatin], in experiment [5], the “spherogenesis of tumor cells after in vivo treatment” value is on record as “unchanged spherogenesis”. As for `Cc1[nH]c(/C=C2\C(=O)Nc3ccc(-c4csc(-c5cccnc5)n4)cc32)c(C)c1C(=O)N1CCN(C)CC1` [Compound 13-1], the IC50 in experiment [3] (setting [7]) was in the range of 400 to 800 nM; in experiment [4] (setting [8]) it was 100 to 250 nM. For `Cc1nc(-c2ccc3c(c2)CC(=O)N3)cs1` [Compound 3], the IC50 in experiment [3] (treated 6 or 24 hours) and in experiment [4] (treated 6 or 24 hours) was 50000 to 300000 nM throughout. In experiment [6], `CCN(CC)CCNC(C)c1c(C)[nH]c(/C=C2\C(=O)Nc3ccc(-c4csc(-c5cccnc5)n4)cc32)c1C` (stereo not drawn) [Compound 13-2] yielded an IC50 of 300 to 400 nM. In the case of `Cc1[nH]c(/C=C2\C(=O)Nc3ccc(-c4csc(-c5ccccc5)n4)cc32)c(C)c1C(=O)N1CCN(C)CC1` [Compound 10-1], the IC50 in experiment [3] (setting [7]) fell in the range of 1500 to 3000 nM; in experiment [4] (setting [8]), 800 to 1500 nM.
